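Tested at 5 concentrations; 48 h exposure; 96-well plates; endpoints linearly interpolated, else capped at highest concentration. GI50 is the concentration that inhibits growth by half. The concentration for full growth arrest is given as TGI.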
Experiments:
Assay in all cases: DTP human tumour cell line panel, 48 h
EKVX NSCLC = system: EKVX NSCLC
MDA-MB-231 breast = system: MDA-MB-231 breast
SNB-19 CNS = system: SNB-19 CNS
SK-MEL-28 melanoma = system: SK-MEL-28 melanoma
CAKI-1 renal = system: CAKI-1 renal
NCI-H522 lung = system: NCI-H522 lung
NCI/ADR-RES ovarian = system: NCI/ADR-RES ovarian
HOP-62 NSCLC = system: HOP-62 NSCLC
SF-539 CNS = system: SF-539 CNS
U251 CNS = system: U251 CNS
HCT-116 colon = system: HCT-116 colon
UACC-62 melanoma = system: UACC-62 melanoma
LOX IMVI melanoma = system: LOX IMVI melanoma
TK-10 renal = system: TK-10 renal
OVCAR-3 ovarian = system: OVCAR-3 ovarian
MALME-3M melanoma = system: MALME-3M melanoma
SK-MEL-2 melanoma = system: SK-MEL-2 melanoma
MCF7 breast = system: MCF7 breast
MDA-MB-435 = system: MDA-MB-435
RXF 393 renal = system: RXF 393 renal
ACHN renal = system: ACHN renal
HOP-92 NSCLC = system: HOP-92 NSCLC
K-562 leukemia = system: K-562 leukemia
HT29 colon = system: HT29 colon
HCC-2998 colon = system: HCC-2998 colon
OVCAR-4 ovarian = system: OVCAR-4 ovarian
UO-31 renal = system: UO-31 renal
A498 renal = system: A498 renal
CCRF-CEM leukemia = system: CCRF-CEM leukemia
DU-145 prostate = system: DU-145 prostate
SW-620 colon = system: SW-620 colon
OVCAR-8 ovarian = system: OVCAR-8 ovarian
SF-295 CNS = system: SF-295 CNS
SN12C renal = system: SN12C renal
RPMI-8226 leukemia = system: RPMI-8226 leukemia
T-47D breast = system: T-47D breast
SNB-75 CNS = system: SNB-75 CNS
A549 NSCLC = system: A549 NSCLC
NCI-H226 lung = system: NCI-H226 lung
BT-549 breast = system: BT-549 breast
M14 melanoma = system: M14 melanoma
OVCAR-5 ovarian = system: OVCAR-5 ovarian
SR leukemia = system: SR leukemia
UACC-257 melanoma = system: UACC-257 melanoma
KM12 colon = system: KM12 colon
IGROV1 ovarian = system: IGROV1 ovarian
PC-3 prostate = system: PC-3 prostate
786-0 renal = system: 786-0 renal
NCI-H460 lung = system: NCI-H460 lung
MOLT-4 leukemia = system: MOLT-4 leukemia
SF-268 CNS = system: SF-268 CNS
NCI-H23 lung = system: NCI-H23 lung
HL-60(TB) leukemia = system: HL-60(TB) leukemia
HCT-15 colon = system: HCT-15 colon
SK-MEL-5 melanoma = system: SK-MEL-5 melanoma
SK-OV-3 ovarian = system: SK-OV-3 ovarian
HS 578T breast = system: HS 578T breast
COLO 205 colon = system: COLO 205 colon

COc1ccc2nc(NNC(=O)c3cnccn3)c3cccn3c2c1
GI50 (EKVX NSCLC): 268 nM
TGI (EKVX NSCLC): 18900 nM
GI50 (MDA-MB-231 breast): 833 nM
TGI (MDA-MB-231 breast): 17600 nM
GI50 (SNB-19 CNS): 350 nM
TGI (SNB-19 CNS): 28000 nM
GI50 (SK-MEL-28 melanoma): 382 nM
TGI (SK-MEL-28 melanoma): 29800 nM
GI50 (CAKI-1 renal): 248 nM
TGI (CAKI-1 renal): 15500 nM
GI50 (NCI-H522 lung): 363 nM
TGI (NCI-H522 lung): 11500 nM
GI50 (NCI/ADR-RES ovarian): 207 nM
TGI (NCI/ADR-RES ovarian): 2090 nM
GI50 (HOP-62 NSCLC): 118 nM
TGI (HOP-62 NSCLC): 20000 nM
GI50 (SF-539 CNS): 362 nM
TGI (SF-539 CNS): 10600 nM
GI50 (U251 CNS): 184 nM
TGI (U251 CNS): 7160 nM
GI50 (HCT-116 colon): 195 nM
TGI (HCT-116 colon): 5260 nM
GI50 (UACC-62 melanoma): 278 nM
TGI (UACC-62 melanoma): 2480 nM
GI50 (LOX IMVI melanoma): 177 nM
TGI (LOX IMVI melanoma): 1780 nM
GI50 (TK-10 renal): 329 nM
TGI (TK-10 renal): > 100000 nM
GI50 (OVCAR-3 ovarian): 236 nM
TGI (OVCAR-3 ovarian): > 22300 nM
GI50 (MALME-3M melanoma): 639 nM
TGI (MALME-3M melanoma): 15400 nM
GI50 (SK-MEL-2 melanoma): 688 nM
TGI (SK-MEL-2 melanoma): > 100000 nM
GI50 (MCF7 breast): 270 nM
TGI (MCF7 breast): 2770 nM
GI50 (MDA-MB-435): 572 nM
TGI (MDA-MB-435): > 100000 nM
GI50 (RXF 393 renal): 663 nM
TGI (RXF 393 renal): 7590 nM
GI50 (ACHN renal): 114 nM
TGI (ACHN renal): 7520 nM
GI50 (HOP-92 NSCLC): 930 nM
TGI (HOP-92 NSCLC): 9650 nM
GI50 (K-562 leukemia): 351 nM
TGI (K-562 leukemia): > 100000 nM
GI50 (HT29 colon): 414 nM
TGI (HT29 colon): > 67100 nM
GI50 (HCC-2998 colon): 522 nM
TGI (HCC-2998 colon): > 52500 nM
GI50 (OVCAR-4 ovarian): 171 nM
TGI (OVCAR-4 ovarian): 5070 nM
GI50 (UO-31 renal): 110 nM
TGI (UO-31 renal): 4980 nM
GI50 (A498 renal): 684 nM
TGI (A498 renal): 9500 nM
GI50 (CCRF-CEM leukemia): 91.9 nM
TGI (CCRF-CEM leukemia): > 100000 nM
GI50 (DU-145 prostate): 283 nM
TGI (DU-145 prostate): 26700 nM
GI50 (SW-620 colon): 315 nM
GI50 (OVCAR-8 ovarian): 303 nM
TGI (OVCAR-8 ovarian): > 47300 nM
GI50 (SF-295 CNS): 219 nM
TGI (SF-295 CNS): 4350 nM
GI50 (SN12C renal): 426 nM
TGI (SN12C renal): 13900 nM
GI50 (RPMI-8226 leukemia): 312 nM
TGI (RPMI-8226 leukemia): > 100000 nM
GI50 (T-47D breast): 433 nM
TGI (T-47D breast): 25500 nM
GI50 (SNB-75 CNS): 408 nM
TGI (SNB-75 CNS): 9310 nM
GI50 (A549 NSCLC): 269 nM
TGI (A549 NSCLC): 14300 nM
GI50 (NCI-H226 lung): 428 nM
TGI (NCI-H226 lung): 6820 nM
GI50 (BT-549 breast): 857 nM
TGI (BT-549 breast): 21000 nM
GI50 (M14 melanoma): 208 nM
TGI (M14 melanoma): 2850 nM
GI50 (OVCAR-5 ovarian): 704 nM
TGI (OVCAR-5 ovarian): > 100000 nM
GI50 (SR leukemia): 121 nM
TGI (SR leukemia): > 100000 nM
GI50 (UACC-257 melanoma): 689 nM
TGI (UACC-257 melanoma): 7620 nM
GI50 (KM12 colon): 321 nM
TGI (KM12 colon): > 21000 nM
GI50 (IGROV1 ovarian): 132 nM
TGI (IGROV1 ovarian): 2320 nM
GI50 (PC-3 prostate): 227 nM
TGI (PC-3 prostate): > 100000 nM
GI50 (786-0 renal): 321 nM
TGI (786-0 renal): 5610 nM
GI50 (NCI-H460 lung): 134 nM
TGI (NCI-H460 lung): 3880 nM
GI50 (MOLT-4 leukemia): 201 nM
TGI (MOLT-4 leukemia): > 100000 nM
GI50 (SF-268 CNS): 227 nM
TGI (SF-268 CNS): 19400 nM
GI50 (NCI-H23 lung): 545 nM
TGI (NCI-H23 lung): > 36000 nM
GI50 (HL-60(TB) leukemia): 270 nM
GI50 (HCT-15 colon): 61.1 nM
TGI (HCT-15 colon): 2460 nM
GI50 (SK-MEL-5 melanoma): 537 nM
TGI (SK-MEL-5 melanoma): 4390 nM
GI50 (SK-OV-3 ovarian): 540 nM
TGI (SK-OV-3 ovarian): 9090 nM
GI50 (HS 578T breast): 2450 nM
TGI (HS 578T breast): > 59900 nM
GI50 (COLO 205 colon): 331 nM
TGI (COLO 205 colon): 8280 nM

Source: PubChem BioAssay (NCI)
